Results published in US12162893B2 (Erasca, Inc., priority 2020, dated 2024).

Each compound was assayed against T1, mutant G12C K-RAS (Homo sapiens, UniProt P01116, G12C) (assay: covalent adduct formation (CAF) with mutant G12C K-RAS). Conditions: Table 6; 10 μM, 1 h.
T1 construct: made in house; host or cells: E. coli BL21
Format: binding
Description: Embodiments disclosed herein are further illustrated by the following examples in Tables 1-4 and the Examples hereinbelow. The Tables indicate the compound number, structure, the observed mass spectral molecular weight peak, and covalent adduct formation (CAF) with a mutant G12C K-RAS after 60 minutes at a concentration of 10 micromolar.

Point of comparison: `C=CC(=O)N1C[C@H](C)N(c2nc(=O)n3c4c(c(-c5ccc(F)cc5F)c(C#N)cc24)OC[C@H]3CCCN2C[C@@H]3C[C@H]2CO3)C[C@H]1C` [Example 332, (3R)-3-(3-((1S,4S)-2-oxa-5-azabicyclo[2.2.1]heptan-5-yl)propyl)-7-((2S,5R)-4-acryloyl-2,5-dimethylpiperazin-1-yl)-10-(2,4-difluorophenyl)-5-oxo-2,3-dihydro-5H-[1,4]oxazino[2,3,4-ij]quinazoline-9-carbonitrile], “% CAF @ 10 μM,1 h” value 56.9%. Against it:
- C=CC(=O)N1C[C@H](C)N(c2nc(=O)n3c4c(c(-c5ccc(F)cc5F)c(C5CC5)cc24)OC[C@H]3CCCN2C[C@@H]3C[C@H]2CO3)C[C@H]1C [Example 323, (3R)-3-(3-((1S,4S)-2-oxa-5-azabicyclo[2.2.1]heptan-5-yl)propyl)-7-((2S,5R)-4-acryloyl-2,5-dimethylpiperazin-1-yl)-9-cyclopropyl-10-(2,4-difluorophenyl)-2,3-dihydro-5H-[1,4]oxazino[2,3,4-ij]quinazolin-5-one] — higher, 81.1%
- C=CC(=O)N1C[C@H](C)N(c2nc(=O)n3c4c(c(-c5ccc(F)cc5F)c(Cl)cc24)OC[C@@H]3CC2CCN(C)CC2)C[C@H]1C [Example 324, (3S)-7-((2S,5R)-4-acryloyl-2,5-dimethylpiperazin-1-yl)-9-chloro-10-(2,4-difluorophenyl)-3-((1-methylpiperidin-4-yl)methyl)-2H-[1,4]oxazino[2,3,4-ij]quinazolin-5(3H)-one] — higher, 63.4%
- C=CC(=O)N1C[C@H](C)N(c2nc(=O)n3c4c(c(-c5ccc(F)cc5F)c(Cl)cc24)OC[C@H]3CCCN(C)C2COC2)C[C@H]1C [Example 327, (3R)-7-((2S,5R)-4-acryloyl-2,5-dimethylpiperazin-1-yl)-9-chloro-10-(2,4-difluorophenyl)-3-(3-(methyl(oxetan-3-yl)amino)propyl)-2,3-dihydro-5H-[1,4]oxazino[2,3,4-ij]quinazolin-5-one] — higher, 84.5%
- C=CC(=O)N1C[C@H](C)N(c2nc(=O)n3c4c(c(-c5ccc(F)cc5F)c(Cl)cc24)OC[C@H]3CC2CCN(CC(F)F)CC2)C[C@H]1C [Example 328, (3R)-7-((2S,5R)-4-acryloyl-2,5-dimethylpiperazin-1-yl)-9-chloro-3-((1-(2,2-difluoroethyl)piperidin-4-yl)methyl)-10-(2,4-difluorophenyl)-2H-[1,4]oxazino[2,3,4-ij]quinazolin-5(3H)-one] — higher, 87%
- C=CC(=O)N1C[C@H](C)N(c2nc(=O)n3c4c(c(-c5ccc(F)cc5F)c(Cl)cc24)OC[C@H]3CC2CCN(C3CC3)CC2)C[C@H]1C [Example 329, (3R)-7-((2S,5R)-4-acryloyl-2,5-dimethylpiperazin-1-yl)-9-chloro-3-((1-cyclopropylpiperidin-4-yl)methyl)-10-(2,4-difluorophenyl)-2H-[1,4]oxazino[2,3,4-ij]quinazolin-5(3H)-one] — higher, 73.4%
- C=CC(=O)N1C[C@H](C)N(c2nc(=O)n3c4c(c(-c5ccc(F)cc5F)c(Cl)cc24)OC[C@H]3CCCN2CC[C@H](F)C2)C[C@H]1C [Example 330, (3R)-7-((2S,5R)-4-acryloyl-2,5-dimethylpiperazin-1-yl)-9-chloro-10-(2,4-difluorophenyl)-3-(3-((S)-3-fluoropyrrolidin-1-yl)propyl)-2,3-dihydro-5H-[1,4]oxazino[2,3,4-ij]quinazolin-5-one] — higher, 91.7%
- C=CC(=O)N1C[C@H](C)N(c2nc(=O)n3c4c(c(-c5ccc(F)cc5F)c(Cl)cc24)OC[C@H]3CCCN(CC(F)(F)F)C2COC2)C[C@H]1C [Example 331, (3R)-7-((2S,5R)-4-acryloyl-2,5-dimethylpiperazin-1-yl)-9-chloro-10-(2,4-difluorophenyl)-3-(3-(oxetan-3-yl(2,2,2-trifluoroethyl)amino)propyl)-2,3-dihydro-5H-[1,4]oxazino[2,3,4-ij]quinazolin-5-one] — higher, 59.2%
- C=CC(=O)N1C[C@H](C)N(c2nc(=O)n3c4c(c(-c5ccc(F)cc5F)c(Cl)cc24)OC[C@H]3CC2CCN(CC)CC2)C[C@H]1C [Example 333, (3R)-7-((2S,5R)-4-acryloyl-2,5-dimethylpiperazin-1-yl)-9-chloro-10-(2,4-difluorophenyl)-3-((1-ethylpiperidin-4-yl)methyl)-2H-[1,4]oxazino[2,3,4-ij]quinazolin-5(3H)-one] — higher, 83.9%
- C=CC(=O)N1C[C@H](C)N(c2nc(=O)n3c4c(c(-c5ccc(F)cc5F)c(Cl)cc24)OC[C@H]3CCCN2CC[C@H](OC)C2)C[C@H]1C [Example 334, (3R)-7-((2S,5R)-4-acryloyl-2,5-dimethylpiperazin-1-yl)-9-chloro-10-(2,4-difluorophenyl)-3-(3-((S)-3-methoxypyrrolidin-1-yl)propyl)-2,3-dihydro-5H-[1,4]oxazino[2,3,4-ij]quinazolin-5-one] — higher, 84.6%
- C=CC(=O)N1C[C@H](C)N(c2nc(=O)n3c4c(c(-c5ccc(F)cc5F)c(Cl)cc24)OC[C@H]3CO[C@H]2CCN(C)C2)C[C@H]1C [Example 335, (3R)-7-((2S,5R)-4-acryloyl-2,5-dimethylpiperazin-1-yl)-9-chloro-10-(2,4-difluorophenyl)-3-((((S)-1-methylpyrrolidin-3-yl)oxy)methyl)-2H-[1,4]oxazino[2,3,4-ij]quinazolin-5(3H)-one] — lower, 54.6%
- C=CC(=O)N1C2CC(=O)CC1CN(c1nc(=O)n3c4c(c(-c5ccc(F)cc5F)c(C(F)(F)F)cc14)OCC3)C2 [Example 337, 7-(9-acryloyl-7-oxo-3,9-diazabicyclo[3.3.1]nonan-3-yl)-10-(2,4-difluorophenyl)-9-(trifluoromethyl)-2,3-dihydro-5H-[1,4]oxazino[2,3,4-ij]quinazolin-5-one] — higher, 95.9%
